Experimental data: patent US11021545B2, “Multimodal cancer therapy comprising chimeric viral/nonviral nanoparticles and anticancer agents” (The Regents of the University of California, priority 2018, dated 2021)

Tested on: BCR-ABL+ FL 5.12 p190 cells
Assay: cells
Conditions: Mus musculus, FL5.12, read-out: IC50 of dasatinib without ChNPs
Method: Viability was tested three days after delivery. […] After 24 h, PBS, BIM AAV alone, MCL-1 siRNA alone, mixture of BIM AAV and siRNA, and various ChNPs (Null/Scr, Null/MCL-1, BIM/Scr, BIM/MCL-1 ChNPs) are added to the cells at different BIM AAV and MCL-1 siRNA concentrations. To measure cell viability, the cells maintained with fresh media everyday are pelleted by centrifugation (2000 rpm, 5 min, 4° C.) and resuspended in fresh media. The cells in 90 μL medium then are transferred into a 96-well plate where MTT (5 mg/mL in 10 μL PBS) is subsequently added. After 4 h of incubation at 37° C., the well plate is centrifuged at 2000 rpm and 4° C. for 5 min, and the media is replaced by 100 μL DMSO per well. The relative cell viability is quantified by comparing absorptions at 570 nm using a microplate reader (Synergy H1, Biotek), based on the absorption in the wells containing nontreated cells.

For `Cc1nc(Nc2ncc(C(=O)Nc3c(C)cccc3Cl)s2)cc(N2CCN(CCO)CC2)n1` [dasatinib], the IC50 was 1 nM.
